Laboratory results taken from patent publication US20110066134A1, “Controlling Drug Transport and Current in Iontophoretic Onychomycosis Treatment” (Nitric Biotherapeutics, Inc., priority 2009, published 2011).
Values joined by “and” are separate entries in the source; they are usually repeats but may differ in a detail not shown here. Identical values can stand only once.

Experiments:
[1] = clinical; conditions: human, in vivo
Experimental: Both applicator designs were used in clinical studies, including clinical nail samples at various iontophoretic dose levels taken 24 hours post treatment. For an average dose of about 8 mA-min, drug amounts for masked drape clipping assays averaged about 423 ug/g and full drape clippings averaged about 842 ug/g. The clipping sizes and volumes varied (n=80, mean=[…], sd=1.8). The amount of drug found in nail clippings for the masked drape treatments appeared to be lower than expected given the higher current concentration in nail vs. levels found for the full drape treatments at a lower level of nail current.
It is believed that the lower drug levels found during the clinical study from nail clippings in the masked drape applications was the result of samples at the extremities of the nail. As contemplated herein, the presence of a drug delivery gradient is supported by the location of clinical nail samples, the results of current distribution modeling and the cadaver toe experiments.
For example, the current measurement and drug loading maps for cadaver nail and toe as depicted in FIG. 3 indicate a significant gradient. Drug loading at the periphery of the nail was about 26 to 77 times less than drug loading in the center of the nail. Nail clippings for the masked drape group in the clinical studies provided herein were taken about 24 hours post treatment from the distal nail. Samples varied in size and volume, but averaged about 1.8 mm long. This size and location corresponds with the nail sampling performed in the cadaver toe experiments in the category of “peripheral 2” or “remaining” and depicted in FIG. 3A in about the 9 to 12 mm range. The current levels predicted by the model in the same areas correlate well with drug distribution samples, r=0.998, p=0.000.
Applying the cadaver transfer number for nail vs. skin to the in-vivo results yields an estimate for nail and drug delivered for both tissues (based upon resistance ratios calculated from measured voltages during the clinical study.)
FIG. 10 depicts the projected delivery of terbinafine into skin and nail for full drape using cadaver transfer number calculation. The mean level of terbinafine estimated to have been delivered with full drape treatments to patients in the clinical studies using this method is about 12.4 ug skin, 9.4 ug nail, as compared with a mean of about 15 ug skin and 14 ug nail for cadaver toes.

[2] = Cadaver toe delivery testing: iontophoretic terbinafine loading into nail, nail bed and surrounding tissue; format: in vitro ADME
Experimental: The results of drug loading experiments in cadaver toes reported by Nair [Nair et al., 2009, Pharm Res. 26(9):2194-201] were compared with current measurements made using the current test fixture of FIG. 1 and models for the two tissue groups. The experiments disclosed herein were conducted to determine 1) if a drug delivery gradient existed in masked drape applications, and how that correlated with drug assays in cadaver toes; and 2) to determine the proportion of current flowing in soft tissue vs. into nail in cadaver toe delivery, and to compare that with drug loading found by Nair in the two tissue types. It is believed that the transfer efficiency is higher in nail than into soft tissue.
Cadaver Toe Delivery Testing: Six cadaver toes were soaked in physiologic saline prior to treatment. Each terbinafine loaded applicator type (masked drape and full drape) was placed on the toe and iontophoretic treatment of 0.5 mA for 20 min was delivered. Post treatment, the nails, and sections of nail bed and surrounding tissue, were excised and analyzed. The amount of loaded terbinafine was compiled for each section. The iontophoretic power source and general configuration for the applicator on the cadaver toe are depicted in FIGS. 2A and 2B. Additional details regarding methods used and experimental details for cadaver toe delivery tests can be found in [Nair et al., 2009, Pharm Res. 26(9):2194-201].
FIG. 3A depicts drug assay results from cadaver nails following iontophoresis using a masked drape applicator, while FIG. 3B depicts current measurements taken at the same current levels through cadaver nail into agarose. Terbinafine sample data was compiled allocating samples to the same relative spacing as current sensing nodes in the current test fixture of FIG. 1. […] Results of finite element analysis for essentially masked electrodes over tissue that illustrate gradients with higher resolution can also be seen as provided by Kresteva and Papazov [Krasteva et al., Biomed Eng Online. 2002 Dec. 16; 1:7].
where tx is the transport number, F is Faraday's constant, A is area of application and zx is charge. For a particular “membrane” or “tissue type”, tx is the ratio of (charge, mobility and drug concentration of the charge carrier) to the product of these for all charge carriers, i is current and vcx is an electroosmotic term. Rather than determine individual elements of Kalia's formula, an aggregate transport number of skin (tskin) and nail & nail bed (tnail) can be calculated, essentially aggregating the factors and segmenting them into soft tissue plus nail/nail bed.
Where l is the amount of drug loaded for skin or nail. For a given dose in uA-min, the amount of terbinafine loaded into cadaver nail & nail bed vs. cadaver skin vs. delivered dose and calculated transfer number is
ltotal=lskin+lnail,lskin=dskin×tskin and lnail=dnail×tnail in ug/mA-min, (5)
where dskin, dnail is the product of current through skin (or nail) and time (dose), tskin, tnail is an aggregate of all factors related to delivery into skin (or nail) and lskin, lnail is the amount of terbinafine loaded into skin (or nail).
Table III lists the areas of delivery, current and transfer number calculations for the 6 cadaver toe trials. FIG. 9 depicts the average transport numbers including values calculated for current (for reference), skin alone in Franz cell and Rat.

[3] = cadaver toe, full drape, 0.5 mA for 20 min, average of 6 trials
[4] = cadaver toe, full drape, 0.5 mA for 20 min, individual Trials 1-6

CN(C/C=C/C#CC(C)(C)C)Cc1cccc2ccccc12 [terbinafine]
mean level of terbinafine estimated to have been delivered to nail [1]: ~9.4 µg | mean level of terbinafine estimated to have been delivered to skin [1]: about 12.4 ug | concentration at 24 h ([1]; Mean Nail Levels, Applicator Design Nail/Skin): 988000 ng/g | concentration at 24 h ([1]; average drug amount in full drape clippings): ~842000 ng/g | concentration at 24 h ([1]; average drug amount in masked drape clipping assays): ~423000 ng/g | tf nail = (ug/cm^2)/(dose/cm^2), Avg [2, 3]: 5.180 (ug/cm^2)/(dose/cm^2) | tf skin = (ug/cm^2)/(dose/cm^2), Avg [2, 3]: 2.181 (ug/cm^2)/(dose/cm^2) | tf nail = (ug/cm^2)/(dose/cm^2) [2, 4]: 6.358 (ug/cm^2)/(dose/cm^2) and 7.438 (ug/cm^2)/(dose/cm^2) and 3.805 (ug/cm^2)/(dose/cm^2) and 2.328 (ug/cm^2)/(dose/cm^2) and 3.917 (ug/cm^2)/(dose/cm^2) and 7.237 (ug/cm^2)/(dose/cm^2) | tf skin = (ug/cm^2)/(dose/cm^2) [2, 4]: 1.745 (ug/cm^2)/(dose/cm^2) and 1.632 (ug/cm^2)/(dose/cm^2) and 1.975 (ug/cm^2)/(dose/cm^2) and 2.368 (ug/cm^2)/(dose/cm^2) and 1.961 (ug/cm^2)/(dose/cm^2) and 3.403 (ug/cm^2)/(dose/cm^2) | aggregate transport number for the nail-only application compared with nail in the full drape application ([2]; cadaver toe, n=4, p=0.032): less than the factor for nail in the full drape application | delivery into skin compared with nail & nail bed ([2]; cadaver toes, about 0.5 mA for 20 min, p=0.78, n=6): statistical equivalence | mean terbinafine delivered to nail ([2]; cadaver toes, full drape): ~14 µg | mean terbinafine delivered to skin ([2]; cadaver toes, full drape): about 15 ug
